Holding throughout (assay type): in vivo
The test system of experiment [1] is Colorado Potato Beetle (Leptinotarsa decemlineata) (2nd instar larvae). Briefly: Colorado potato beetle foliar spray test on eggplant, mortality. Particulars: 96 h, 4 days after treatment, Table E; for mortality at 1 ppm: Concentration 1 ppm; for mortality at 10 ppm: Concentration 10 ppm; for mortality at 30 ppm: Concentration 30 ppm. On the procedure: (§1) The active compounds were formulated in cyclohexanone as a 10,000 ppm solution supplied in tubes. The tubes were inserted into an automated electrostatic sprayer equipped with an atomizing nozzle and they served as stock solutions for which lower dilutions were made in 50% acetone:50% water (v/v). A nonionic surfactant (Kinetic®) was included in the solution at a volume of 0.01% (v/v).
Eggplants were grown 2 plants to a pot and were selected for treatment at the 1st true leaf stage. Test solutions were sprayed onto the foliage by an automated electrostatic plant sprayer equipped with an atomizing spray nozzle. The plants were dried in the sprayer fume hood and then removed from the sprayer. The treated foliage was then cut and removed from the pot and placed in a Petri dish lined with moistened filter paper. Five beetle larvae were introduced into each Petri dish and the dish was covered by a Petri dish lid. Petri dishes were maintained in a growth room at about 25° C. and about 20-40% relative humidity for 4 days, avoiding direct exposure to fluorescent light (24 hour photoperiod) to prevent trapping of heat inside the dishes. Mortality and reduced feeding were assessed 4 days after treatment, compared to untreated control plants.

Experiment [2] concerns Diamond Backmoth (Plutella xylostella). Briefly: Diamond backmoth leaf-dip test, mortality. To be noted: 72 hours after treatment, 3rd instar larvae on dipped cabbage leaves, read-out: mortality in comparison with untreated controls. The procedure: The active compound was dissolved at the desired concentration in a mixture of 1:1 (vol:vol) distilled water:aceteone. Surfactant (Alkamuls® EL 620) was added at a rate of 0.1% (vol/vol). The test solution was prepared at the day of use.
Leaves of cabbage were dipped in test solution and air-dried. Treated leaves were placed in petri dishes lined with moist filter paper and inoculated with ten 3rd instar larvae. Mortality was recorded 72 hours after treatment. Feeding damages were also recorded using a scale of 0-100%.

For experiment [3], the system named is Boll weevil (Anthonomus grandis). Put plainly: Boll weevil microtiter diet test, egg and larval mortality. To be noted: 120 h, 5 days, insect diet, read-out: mortality in comparison with untreated controls. The procedure:
For evaluating control of boll weevil (Anthonomus grandis) the test unit consisted of 24-well-microtiter plates containing an insect diet and 20-30 A. grandis eggs.
The compounds were formulated using a solution containing 75% v/v water and 25% v/v DMSO. Different concentrations of formulated compounds were sprayed onto the insect diet at 20 μl, using a custom built micro atomizer, at two replications.
After application, microtiter plates were incubated at about 23±1° C. and about 50±5% relative humidity for 5 days. Egg and larval mortality was then visually assessed.

Experiment [4] concerns Vetch aphid (Megoura viciae). Briefly: Vetch aphid broad bean leaf disk test, mortality. To be noted: foliar, 120 h, 5 days, adult aphids on broad bean leaf disks, read-out: mortality in comparison with untreated controls. On the procedure: For evaluating control of vetch aphid (Megoura viciae) through contact or systemic means the test unit consisted of 24-well-microtiter plates containing broad bean leaf disks.
The compounds were formulated using a solution containing 75% v/v water and 25% v/v DMSO. Different concentrations of formulated compounds were sprayed onto the leaf disks at 2.5 μl, using a custom built micro atomizer, at two replications.
After application, the leaf disks were air-dried and 5-8 adult aphids placed on the leaf disks inside the microtiter plate wells. The aphids were then allowed to suck on the treated leaf disks and incubated at about 23±1° C. and about 50±5% relative humidity for 5 days. Aphid mortality and fecundity was then visually assessed.

The subject of experiment [5] is TOBACCO budworm (Heliothis virescens). Put plainly: Tobacco budworm microtiter diet test, egg and larval mortality. To be noted: 120 h, 5 days, insect diet, read-out: mortality in comparison with untreated controls. The procedure:
For evaluating control of tobacco budworm (Heliothis virescens) the test unit consisted of 96-well-microtiter plates containing an insect diet and 15-25 H. virescens eggs. The compounds were formulated using a solution containing 75% v/v water and 25% v/v DMSO. Different concentrations of formulated compounds were sprayed onto the insect diet at 10 μl, using a custom built micro atomizer, at two replications.
After application, microtiter plates were incubated at about 28±1° C./and about 80±5% relative humidity for 5 days. Egg and larval mortality was then visually assessed.

Experiment [6] has as its system Mediterranean Fruitfly (Ceratitis capitata). Put plainly: Mediterranean fruitfly microtiter diet test, egg and larval mortality. To be noted: 120 h, 5 days, insect diet, read-out: mortality in comparison with untreated controls. On the procedure:
For evaluating control of Mediterranean fruitfly (Ceratitis capitata) the test unit consisted of microtiter plates containing an insect diet and 50-80 C. capitata eggs.
The compounds were formulated using a solution containing 75% v/v water and 25% v/v DMSO. Different concentrations of formulated compounds were sprayed onto the insect diet at 5 μl, using a custom built micro atomizer, at two replications.
After application, microtiter plates were incubated at about 28±1° C. and about 80±5% relative humidity for 5 days. Egg and larval mortality was then visually assessed.

For experiment [7], the system named is Green Peach Aphid (Myzus persicae). Briefly: Green peach aphid spray test on bell pepper plants, mortality. To be noted: 120 h, after 5 days, sprayed bell pepper plants, read-out: mortality in comparison with untreated controls.
From the text: as §1
Bell pepper plants at the first true-leaf stage were infested prior to treatment by placing heavily infested leaves from the main colony on top of the treatment plants. Aphids were allowed to transfer overnight to accomplish an infestation of 30-50 aphids per plant and the host leaves were removed. The infested plants were then sprayed by an automated electrostatic plant sprayer equipped with an atomizing spray nozzle. The plants were dried in the sprayer fume hood, removed, and then maintained in a growth room under fluorescent lighting in a 24-hr photoperiod at about 25° C. and about 20-40% relative humidity. Aphid mortality on the treated plants, relative to mortality on untreated control plants, was determined after 5 days.

Experiment [8] concerns Southern Armyworm (Spodoptera eridiana); 2nd Instar Larvae. Briefly: Southern armyworm foliar spray test on lima bean, mortality. Particulars: for mortality at 1 ppm: Concentration 1 ppm; for mortality at 1 ppm / mortality at 10 ppm / mortality at 30 ppm: southern armyworm, Table D; for mortality at 10 ppm: Concentration 10 ppm; for mortality at 30 ppm: Concentration 30 ppm; for mortality at 500 ppm: Spodoptera, 96 h, 4 days after treatment, lima bean foliage spray, read-out: mortality in comparison with untreated controls. The procedure:
as §1
Lima bean plants (variety Sieva) were grown 2 plants to a pot and selected for treatment at the 1st true leaf stage. Test solutions were sprayed onto the foliage by an automated electrostatic plant sprayer equipped with an atomizing spray nozzle. The plants were dried in the sprayer fume hood and then removed from the sprayer. Each pot was placed into perforated plastic bags with a zip closure. About 10 to 11 armyworm larvae were placed into the bag and the bags zipped closed. Test plants were maintained in a growth room at about 25° C. and about 20-40% relative humidity for 4 days, avoiding direct exposure to fluorescent light (24 hour photoperiod) to prevent trapping of heat inside the bags. Mortality and reduced feeding were assessed 4 days after treatment, compared to untreated control plants.

For experiment [9], the system named is Cowpea Aphid (Aphis Craccivora). Put plainly: Cowpea aphid spray test on potted cowpea plants, mortality. Particulars: after 72 hours, sprayed cowpea plants, read-out: mortality in comparison with untreated controls. The procedure: The active compound was dissolved at the desired concentration in a mixture of 1:1 (vol:vol) distilled water:acetone. Surfactant (Alkamuls® EL 620) is added at a rate of 0.1% (vol/vol). The test solution was prepared at the day of use.
Potted cowpea plants were colonized with approximately 50-100 aphids of various stages by manually transferring a leaf tissue cut from infested plant 24 hours before application. Plants were sprayed after the pest population has been recorded. Treated plants were maintained on light carts at about 28° C. Percent mortality was assessed after 72 hours.

Experiment [10] relates to Orchid Thrips (dichromothrips corbetti). Briefly: Orchid thrips floral-immersion test, mortality. Particulars: 72 hours after treatment, adult thrips, read-out: mortality in comparison with untreated controls. On the procedure:
Dichromothrips corbetti adults used for bioassay were obtained from a colony maintained continuously under laboratory conditions. For testing purposes, the test compound was diluted in a 1:1 mixture of acetone:water (vol:vol), plus 0.01% vol/vol Alkamuls® EL 620 surfactant.
Thrips potency of each compound was evaluated by using a floral-immersion technique. Plastic petri dishes were used as test arenas. All petals of individual, intact or chid flowers were dipped into treatment solution and allowed to dry. Treated flowers were placed into individual petri dishes along with about 20 adult thrips. The petri dishes were then covered with lids. All test arenas were held under continuous light and a temperature of about 28° C. for duration of the assay. After 3 days, the numbers of live thrips were counted on each flower, and along inner walls of each petri dish. The percent mortality was recorded 72 hours after treatment.

Each structure is given as a SMILES string.

As a reminder, the mortality is the percentage killed.

As to `CNC(=O)CONC(=O)c1cc(Cl)cc(C)c1NC(=O)c1cc(Br)nn1-c1ncccc1Cl` [Compound 1-3, 5-bromo-2-(3-chloro-pyridin-2-yl)-2H-pyrazole-3-carboxylic acid (4-chloro-2-methyl-6-methylcarbamoylmethoxycarbamoyl-phenyl)-amide], the mortality at 1 ppm in experiment [1] and in experiment [8] was 100% each time. Further, the mortality at 10 ppm in experiment [1] and in [8] was 100% throughout. Moreover, the mortality at 30 ppm in experiment [1] and in experiment [8] was 100% each time. Besides, the mortality at 500 ppm in [2] and in experiment [8] was 100% each time. Besides, the mortality at 2500 ppm in experiment [3], in experiment [4], in experiment [5], in experiment [6] and in experiment [7] was above 75% each time.
As to `CNC(=O)CONC(=O)c1cc(Br)cc(Br)c1NC(=O)c1cc(Br)nn1-c1ncccc1Cl` [Compound 1-10, 5-bromo-2-(3-chloro-pyridin-2-yl)-2H-pyrazole-3-carboxylic acid (2,4-dibromo-6-methylcarbamoylmethoxycarbamoyl-phenyl)-amide], the mortality at 500 ppm in experiment [2] is 100%; in experiment [9] it was above 75%; in [8], 100%; in experiment [10], above 75%. For the same compound, the mortality at 2500 ppm in experiment [3], in experiment [4], in experiment [5], in [6] and in experiment [7] was above 75% in each case.
Turning to `Cc1cc(Cl)cc(C(=O)NNCC(=O)NCc2ccccc2)c1NC(=O)c1cc(Br)nn1-c1ncccc1Cl` [Compound 1-11, 5-bromo-2-(3-chloro-pyridin-2-yl)-2H-pyrazole-3-carboxylic acid {2-[N′-(benzylcarbamoyl-methyl)-hydrazinocarbonyl]-4-chloro-6-methyl-phenyl}-amide], the mortality at 500 ppm in experiment [2] and in experiment [8] was 100% throughout. Also, the mortality at 2500 ppm in [3], in experiment [4], in experiment [5], in experiment [6] and in experiment [7] was above 75% in each case.
In [1], `CONC(=O)c1cc(Cl)cc(C)c1NC(=O)c1cc(Br)nn1-c1ncccc1Cl` [Compound X-1, 5-bromo-2-(3-chloro-pyridin-2-yl)-2H-pyrazole 3-carboxylic acid (4-chloro-2-methoxycarbamoyl-6-methyl-phenyl)amide, reference compound] had a mortality at 1 ppm of 0%, a mortality at 10 ppm of 100% and a mortality at 30 ppm of 100%. In [8], this compound had a mortality at 1 ppm of 0%, a mortality at 10 ppm of 100% and a mortality at 30 ppm of 100%.

The record behind these values is patent US20140200135A1, “Carbamoylmethoxy- and carbamoylmethylthio- and carbamoylmethylamino benzamides for combating invertebrate pests” (BASF SE, priority 2011, published 2014).
